According to US10988482B2, “IRAK4 inhibitor and use thereof” (BEIJING HANMI PHARMACEUTICAL CO., LTD., priority 2015, dated 2021):

Molecular target: IRAK4 kinase (Homo sapiens (Human), UniProt Q9NWZ3)
Assay: IRAK4 kinase activity inhibition assay (ADP-Glo)
Assay type: biochemical
Settings: 10 μM ATP, MBP substrate, 60 min at 25° C.
Protocol: IRAK4 kinase (purchased from Life Technologies, Cat. No.: PR5612U) was diluted to 2 folds of the final concentration (the final concentration is 0.76 ng/μL) with reaction buffer (40 mM Tris-HCl, pH 7.5; 20 mM MgCl2; 0.1 mg/mL BSA; 1 mM DTT), and added to a 384-well plate at 5 μL/well. The test drugs were 10-fold serial diluted from 10 μM to set six concentration points and added to the test wells of the 384-well plate at 2.5 μL/well. After incubation for 10 min at 25° C., 10 μM of ATP and […] of an enzyme reaction substrate, myelin basic protein MBP (purchased from SignalChem, Cat. No.: M42-51N) were added at 2.5 µL/well, and reacted at 25° C. for 60 minutes. After the reaction was completed, the kinase activity assay was performed using the ADP-Glo™ kinase assay kit (purchased from Promega, Cat. No.: V9102) according to the manufacture's instruction, i.e., 10 μL of ADP-Glo reaction reagent was first added and reacted at 25° C. for 40 minutes, 10 μL of the solution to be tested was taken and mixed with 10 μL of ADP-Glo detection reagent, and reacted at 25° C. for 30 minutes. The kinase activity was then detected, and the IC50 values of the test drugs were calculated.

Chain of IRAK4 kinase (Q9NWZ3 whole entry): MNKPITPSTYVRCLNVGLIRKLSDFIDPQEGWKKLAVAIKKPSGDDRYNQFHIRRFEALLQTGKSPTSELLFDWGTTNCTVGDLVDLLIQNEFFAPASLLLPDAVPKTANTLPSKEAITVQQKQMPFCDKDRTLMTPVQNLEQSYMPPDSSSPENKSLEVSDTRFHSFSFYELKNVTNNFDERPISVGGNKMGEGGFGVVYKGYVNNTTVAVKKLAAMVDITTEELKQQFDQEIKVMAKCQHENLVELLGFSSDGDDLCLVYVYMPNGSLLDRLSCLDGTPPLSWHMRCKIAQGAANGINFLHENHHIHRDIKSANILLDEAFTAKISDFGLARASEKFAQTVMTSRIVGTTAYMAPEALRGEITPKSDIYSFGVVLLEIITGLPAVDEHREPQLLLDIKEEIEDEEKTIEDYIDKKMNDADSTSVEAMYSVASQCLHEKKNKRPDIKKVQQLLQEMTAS

| SMILES | IC50 |
| --- | --- |
| Cc1cc(Nc2nc(N(C)C3CCC(C)(O)CC3)c3sccc3n2)sn1 (stereo not shown) [Compound 24, 1-methyl-4-(methyl(2-((3-methylisothiazol-5-yl)amino)thieno[3,2-d]pyrimidin-4-yl)amino)cyclohexanol] | 1000 to 10000 nM |
| O[C@H]1CC[C@H](Nc2nc(Nc3ccncc3)nc3ccsc23)CC1 [Compound 21] | 1000 to 10000 nM |
| Cc1cc(Nc2nc(NC3CCC(C(N)=O)CC3)c3sccc3n2)sn1 (stereo not shown) [Compound 13] | 100 to 1000 nM |
| COCCNC(=O)c1cc(Nc2nc(N[C@H]3CC[C@](C)(O)CC3)c3sccc3n2)sn1 [Compound 53] | 100 to 1000 nM |
| CN[C@H]1CC[C@H](Nc2nc(Nc3cc(C)ns3)nc3ccsc23)CC1 [Compound 89] | 100 to 1000 nM |
| CO[C@H]1CC[C@H](Nc2nc(Nc3cc(C)ns3)nc3ccsc23)CC1 [Compound 16] | 100 to 1000 nM |
| C[C@]1(O)CC[C@H](Nc2nc(Nc3cc(C(=O)Nc4ccccc4)ns3)nc3ccsc23)CC1 [Compound 61] | 1000 to 10000 nM |
| Cc1cc(Nc2nc(O[C@H]3CC[C@@H](N)CC3)c3sccc3n2)sn1 [Compound 82] | 100 to 1000 nM |
| Cc1cc(Nc2nc(N[C@H]3CC[C@H](O)C3)c3sccc3n2)sn1 [Compound 5] | 100 to 1000 nM |
| CN1CCN(c2cccc(Nc3nc(N[C@H]4CC[C@](C)(O)CC4)c4sccc4n3)c2)CC1 [Compound 73] | 100 to 1000 nM |
| CN1CCN(Cc2cc(Nc3nc(N[C@H]4CC[C@](C)(O)CC4)c4sccc4n3)sn2)CC1 [Compound 75] | 1000 to 10000 nM |
| Cc1cc(Nc2nc(O[C@H]3CC[C@H](O)CC3)c3sccc3n2)sn1 [Compound 15] | 100 to 1000 nM |
| Cc1cc(-n2cc(Nc3nc(N[C@H]4CC[C@H](O)CC4)c4sccc4n3)cn2)ccn1 [Compound 43] | 100 to 1000 nM |
| Cc1cc(Nc2nc(O[C@H]3CC[C@@H](N)C3)c3sccc3n2)sn1 [Compound 81] | 100 to 1000 nM |
| Cc1cc(Nc2nc(NC3CCC(C)(O)C3)c3sccc3n2)sn1 (stereo not shown) [Compound 6] | 100 to 1000 nM |
| CN[C@H]1C[C@H](Nc2nc(Nc3cc(C)ns3)nc3ccsc23)C1 [Compound 86, N^4-(trans-3-(methylamino)cyclobutyl)-N^2-(3-methylisothiazol-5-yl)thieno[3,2-d]pyrimidine-2,4-diamine] | 100 to 1000 nM |

| SMILES | IC50 |
| --- | --- |
| Oc1cccc(-n2cc(Nc3nc(N[C@H]4CC[C@H](O)CC4)c4sccc4n3)cn2)c1 [Compound 30] | 100 to 1000 nM |
| CN1CCN(C(=O)c2csc(Nc3nc(N[C@H]4CC[C@](C)(O)CC4)c4sccc4n3)c2)CC1 [Compound 50] | 100 to 1000 nM |
| O[C@H]1CC[C@H](Nc2nc(Nc3cnoc3)nc3ccsc23)CC1 [Compound 19] | 100 to 1000 nM |
| Cc1ncccc1-n1cc(Nc2nc(N[C@H]3CC[C@H](O)CC3)c3sccc3n2)cn1 [Compound 41] | 1000 to 10000 nM |
| Cc1cncc(-n2cc(Nc3nc(N[C@H]4CC[C@H](O)CC4)c4sccc4n3)cn2)c1 [Compound 42] | 100 to 1000 nM |
| Oc1ccc(-n2cc(Nc3nc(N[C@H]4CC[C@H](O)CC4)c4sccc4n3)cn2)cc1 [Compound 31] | 100 to 1000 nM |
| O[C@H]1CC[C@H](Nc2nc(Nc3cnn(-c4cncnc4)c3)nc3ccsc23)CC1 [Compound 40] | 100 to 1000 nM |
| Oc1ccccc1-n1cc(Nc2nc(N[C@H]3CC[C@H](O)CC3)c3sccc3n2)cn1 [Compound 29] | 100 to 1000 nM |
| Cc1cc(Nc2nc(N[C@H]3CC[C@@H](N(C)C)CC3)c3sccc3n2)sn1 [Compound 92] | 100 to 1000 nM |
| Cc1cc(Nc2nc(N[C@H]3CC[C@H](O)CC3)c3sccc3n2)on1 [Compound 17] | 100 to 1000 nM |
| C[C@]1(O)CC[C@H](Nc2nc(Nc3cccc(C(=O)NC4CCNCC4)c3)nc3ccsc23)CC1 [Compound 65] | 100 to 1000 nM |
| C[C@]1(O)CC[C@H](Nc2nc(Nc3cccc(CC(N)=O)c3)nc3ccsc23)CC1 [Compound 72] | 1000 to 10000 nM |
| COc1cc(Nc2nc(N[C@H]3CC[C@](C)(O)CC3)c3sccc3n2)ccn1 [Compound 23] | 100 to 1000 nM |
| O[C@H]1CC[C@H](Nc2nc(Nc3cnn(-c4ccc(N5CCOCC5)cc4)c3)nc3ccsc23)CC1 [Compound 35] | 100 to 1000 nM |
| O[C@H]1CC[C@H](Nc2nc(Nc3cnn(-c4cccc(N5CCOCC5)c4)c3)nc3ccsc23)CC1 [Compound 34] | 100 to 1000 nM |
| C[C@]1(O)CC[C@H](Nc2nc(Nc3ccc(C(=O)N[C@@H]4CCNC4)cc3)nc3ccsc23)CC1 [Compound 64] | 100 to 1000 nM |

Further lines, results first:

| IC50 | SMILES |
| --- | --- |
| 100 to 1000 nM | Cc1cc(Nc2nc(O[C@H]3CC[C@H](N4CCOCC4)CC3)c3sccc3n2)sn1 [Compound 103] |
| ≤ 100 nM | Cn1cc(Nc2nc(N[C@H]3CC[C@H](O)CC3)c3sccc3n2)cn1 [Compound 18] |
| 100 to 1000 nM | CN1CCN(C(=O)c2cc(Nc3nc(N[C@H]4CC[C@H](O)CC4)c4sccc4n3)sn2)CC1 [Compound 45, (5-((4-((trans-4-hydroxycyclohexyl)amino)thieno[3,2-d]pyrimidin-2-yl)amino)isothiazol-3-yl)(4-methylpiperazin-1-yl)methanone] |
| 100 to 1000 nM | C[C@]1(O)CC[C@H](Nc2nc(Nc3cc(C(=O)Nc4ccncc4)ns3)nc3ccsc23)CC1 [Compound 63] |
| 100 to 1000 nM | CN(C)C1CCN(C(=O)c2ccc(Nc3nc(N[C@H]4CC[C@H](O)CC4)c4sccc4n3)cc2)CC1 [Compound 68] |
| 100 to 1000 nM | CN[C@H]1C[C@@H](Nc2nc(Nc3cc(C)ns3)nc3ccsc23)C1 [Compound 87] |
| 100 to 1000 nM | Cc1cc(Nc2nc(NC3CCC(O)C(C)C3)c3sccc3n2)sn1 (stereo not shown) [Compound 11] |
| 100 to 1000 nM | COCCNC(=O)c1csc(Nc2nc(N[C@H]3CC[C@](C)(O)CC3)c3sccc3n2)c1 [Compound 46] |
| ≤ 100 nM | Cc1cc(Nc2nc(O[C@H]3CC[C@H](N(C)C)CC3)c3sccc3n2)sn1 [Compound 96] |
| ≤ 100 nM | C[C@]1(O)CC[C@H](Nc2nc(Nc3cc(C(=O)NC4CCOCC4)ns3)nc3ccsc23)CC1 [Compound 57] |
| ≤ 100 nM | C[C@]1(O)CC[C@H](Nc2nc(Nc3cc(C(=O)N[C@@H]4CCNC4)ns3)nc3ccsc23)CC1 [Compound 55] |
| ≤ 100 nM | Cc1cc(Nc2nc(N[C@H]3CC[C@H](N4CCCCC4)CC3)c3c(ccn3CCCC#N)n2)sn1 [Compound 107] |
| ≤ 100 nM | Cc1cc(Nc2nc(N[C@H]3CC[C@@H](O)C3)c3sccc3n2)sn1 [Compound 4] |
| ≤ 100 nM | Cc1cc(Nc2nc(O[C@H]3CC[C@H](N)CC3)c3sccc3n2)sn1 [Compound 83] |
| ≤ 100 nM | Cc1cc(Nc2nc(N[C@H]3CC[C@@H](O)CC3)c3sccc3n2)sn1 [Compound 8] |
| ≤ 100 nM | C[C@]1(O)CC[C@H](Nc2nc(Nc3cc(C(=O)NCCCO)ns3)nc3ccsc23)CC1 [Compound 52] |
| ≤ 100 nM | Cc1cc(Nc2nc(N[C@H]3CC[C@H](N(C)C)CC3)c3sccc3n2)sn1 [Compound 91, N^4-(trans-4-(dimethylamino)cyclohexyl)-N^2-(3-methylisothiazol-5-yl)thieno[3,2-d]pyrimidine-2,4-diamine] |
| ≤ 100 nM | Cc1cc(Nc2nc(O[C@H]3CC[C@@H](N(C)C)CC3)c3sccc3n2)sn1 [Compound 95] |

| IC50 | SMILES |
| --- | --- |
| ≤ 100 nM | Cc1cc(Nc2nc(N[C@H]3CC[C@H](N4CCCCC4)CC3)c3c(ccn3CCC(N)=O)n2)sn1 [Compound 108] |
| ≤ 100 nM | Cc1cc(Nc2nc(N[C@H]3C[C@@H](N)C3)c3sccc3n2)sn1 [Compound 78] |
| ≤ 100 nM | C[C@]1(O)CC[C@H](Nc2nc(Nc3cc(C(=O)N[C@H]4CCNC4)cs3)nc3ccsc23)CC1 [Compound 47] |
| ≤ 100 nM | Cc1cc(Nc2nc(O[C@H]3CC[C@H](N4CCCCC4)CC3)c3sccc3n2)sn1 [Compound 102] |
| ≤ 100 nM | Cc1cc(Nc2nc(N[C@@H]3CC[C@H](O)[C@@H](O)C3)c3sccc3n2)sn1 [Compound 14] |
| ≤ 100 nM | Cc1cc(Nc2nc(N[C@H]3CC[C@H](N4CCCC4)CC3)c3sccc3n2)sn1 [Compound 99] |
| ≤ 100 nM | C[C@]1(O)CC[C@H](Nc2nc(Nc3cc(C(=O)NCC4CCNCC4)ns3)nc3ccsc23)CC1 [Compound 54] |
| ≤ 100 nM | OCCn1cc(Nc2nc(N[C@H]3CC[C@H](O)CC3)c3sccc3n2)cn1 [Compound 26] |
| ≤ 100 nM | Cc1cc(Nc2nc(N[C@H]3CC[C@H](O)CC3)c3c(ccn3C)n2)sn1 [Compound 104, trans-4-((5-methyl-2-((3-methylisothiazol-5-yl)amino)-5H-pyrrolo[3,2-d]pyrimidin-4-yl)amino)cyclohexanol] |
| ≤ 100 nM | Cc1cc(Nc2nc(N[C@H]3CC[C@H](N(CCO)CCO)CC3)c3sccc3n2)sn1 [Compound 97] |
| ≤ 100 nM | CN1CCC(NC(=O)c2cc(Nc3nc(N[C@H]4CC[C@](C)(O)CC4)c4sccc4n3)sn2)CC1 [Compound 59] |
| ≤ 100 nM | C[C@]1(O)CC[C@H](Nc2nc(Nc3cc(C(=O)NC4CCNCC4)ns3)nc3ccsc23)CC1 [Compound 58] |
| ≤ 100 nM | C[C@]1(O)CC[C@H](Nc2nc(Nc3cc(C(=O)N[C@@H]4CCNC4)cs3)nc3ccsc23)CC1 [Compound 48] |
| ≤ 100 nM | Cc1cc(Nc2nc(N[C@@H]3C[C@H](CO)[C@@H](O)[C@H]3O)c3sccc3n2)sn1 [Compound 7] |
| ≤ 100 nM | O[C@H]1CC[C@H](Nc2nc(Nc3cnn(-c4ccncc4)c3)nc3ccsc23)CC1 [Compound 38] |
| ≤ 100 nM | Cc1cc(Nc2nc(N[C@H]3CC[C@H](N4CCOCC4)CC3)c3sccc3n2)sn1 [Compound 100] |
| ≤ 100 nM | Cc1cc(Nc2nc(N[C@H]3CC[C@@H](N)CC3)c3sccc3n2)sn1 [Compound 79] |
